Reference: ChEMBL document CHEMBL1125472, “5-lipoxygenase: properties, pharmacology, and the quinolinyl(bridged)aryl class of inhibitors” (J Med Chem, 1992)
Values belong to the compound of their own block, whether it stands above or below them.

Columns and labels:
[1] = target: Cyclooxygenase (Homo sapiens, UniProt P35354+P23219); assay: The compound was tested for inhibitory activity against Prostaglandin G/H synthase in human polymorphonuclear leukocytes[PMNS]; format: cell-based
[2] = target: T1, Polyunsaturated fatty acid 5-lipoxygenase (Rattus norvegicus, UniProt P12527); assay: The compound was tested for inhibitory activity against 5-lipoxygenase in rat polymorphonuclear leukocytes[PMNS]; format: cell-based
T1 sequence (P12527 whole entry): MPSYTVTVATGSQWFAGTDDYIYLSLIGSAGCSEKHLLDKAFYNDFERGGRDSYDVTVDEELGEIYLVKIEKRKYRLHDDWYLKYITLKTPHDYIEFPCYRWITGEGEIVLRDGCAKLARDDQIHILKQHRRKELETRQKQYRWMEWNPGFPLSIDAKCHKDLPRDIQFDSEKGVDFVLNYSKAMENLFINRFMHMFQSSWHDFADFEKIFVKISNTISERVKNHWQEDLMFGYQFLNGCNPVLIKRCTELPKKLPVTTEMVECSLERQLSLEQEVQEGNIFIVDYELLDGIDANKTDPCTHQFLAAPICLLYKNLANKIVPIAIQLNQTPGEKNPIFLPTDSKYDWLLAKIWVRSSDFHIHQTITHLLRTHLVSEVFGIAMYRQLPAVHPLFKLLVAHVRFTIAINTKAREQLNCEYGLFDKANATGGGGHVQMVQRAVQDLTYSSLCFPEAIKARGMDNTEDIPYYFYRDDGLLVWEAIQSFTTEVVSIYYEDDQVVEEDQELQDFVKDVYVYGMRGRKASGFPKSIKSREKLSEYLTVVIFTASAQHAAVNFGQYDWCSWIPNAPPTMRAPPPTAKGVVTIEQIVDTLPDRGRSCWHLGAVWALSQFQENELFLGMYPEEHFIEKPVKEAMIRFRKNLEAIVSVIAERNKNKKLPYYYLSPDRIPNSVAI

[3] = target: T2, Cysteinyl leukotriene receptor 1 (Cavia porcellus, UniProt Q2NNR5); assay: The compound was tested for binding affinity against Cysteinyl leukotriene D4 receptor in a soluble guinea pig LTD4 receptor preparation
T2 sequence (Q2NNR5 whole entry): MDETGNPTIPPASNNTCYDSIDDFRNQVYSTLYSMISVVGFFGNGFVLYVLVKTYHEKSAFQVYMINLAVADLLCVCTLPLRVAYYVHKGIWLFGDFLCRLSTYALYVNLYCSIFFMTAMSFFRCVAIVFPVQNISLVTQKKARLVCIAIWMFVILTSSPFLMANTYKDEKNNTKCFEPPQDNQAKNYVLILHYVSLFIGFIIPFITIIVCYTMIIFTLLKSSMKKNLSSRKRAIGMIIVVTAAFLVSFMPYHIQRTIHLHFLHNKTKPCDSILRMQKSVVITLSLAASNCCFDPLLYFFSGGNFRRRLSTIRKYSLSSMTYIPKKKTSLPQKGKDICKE

[4] = species on record: Cavia porcellus; assay: The compound was tested for blocking of LTD4-induced contractions of guinea pig trachea; format: functional; conditions: read-out: pA2 (converted)
[5] = species on record: Cavia porcellus; assay: The effective dose for inhibition of LTD4-induced contractions of guinea pig trachea; format: functional
[6] = target: T3, Cyclooxygenase (Rattus norvegicus, UniProt P35355+Q63921); assay: The compound was tested for inhibitory activity against Prostaglandin G/H synthase in rat polymorphonuclear leukocytes[PMNS]; format: cell-based
T3 sequence (P35355 whole entry): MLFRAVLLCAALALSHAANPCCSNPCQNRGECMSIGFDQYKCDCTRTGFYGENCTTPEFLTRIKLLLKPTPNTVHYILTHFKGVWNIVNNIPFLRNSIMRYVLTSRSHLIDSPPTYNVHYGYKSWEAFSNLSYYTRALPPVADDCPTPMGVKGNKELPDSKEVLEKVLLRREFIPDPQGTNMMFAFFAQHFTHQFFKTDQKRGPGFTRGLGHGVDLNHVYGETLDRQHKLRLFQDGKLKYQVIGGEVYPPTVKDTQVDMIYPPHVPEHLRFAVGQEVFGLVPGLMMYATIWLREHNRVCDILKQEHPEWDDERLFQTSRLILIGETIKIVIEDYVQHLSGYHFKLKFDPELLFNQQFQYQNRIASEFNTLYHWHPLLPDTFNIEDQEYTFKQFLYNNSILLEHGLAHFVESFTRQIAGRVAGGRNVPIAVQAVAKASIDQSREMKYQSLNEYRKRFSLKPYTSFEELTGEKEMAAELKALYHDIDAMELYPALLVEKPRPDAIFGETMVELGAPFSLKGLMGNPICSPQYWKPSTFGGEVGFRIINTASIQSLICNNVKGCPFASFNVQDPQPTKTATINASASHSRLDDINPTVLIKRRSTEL
T3 sequence (Q63921 whole entry): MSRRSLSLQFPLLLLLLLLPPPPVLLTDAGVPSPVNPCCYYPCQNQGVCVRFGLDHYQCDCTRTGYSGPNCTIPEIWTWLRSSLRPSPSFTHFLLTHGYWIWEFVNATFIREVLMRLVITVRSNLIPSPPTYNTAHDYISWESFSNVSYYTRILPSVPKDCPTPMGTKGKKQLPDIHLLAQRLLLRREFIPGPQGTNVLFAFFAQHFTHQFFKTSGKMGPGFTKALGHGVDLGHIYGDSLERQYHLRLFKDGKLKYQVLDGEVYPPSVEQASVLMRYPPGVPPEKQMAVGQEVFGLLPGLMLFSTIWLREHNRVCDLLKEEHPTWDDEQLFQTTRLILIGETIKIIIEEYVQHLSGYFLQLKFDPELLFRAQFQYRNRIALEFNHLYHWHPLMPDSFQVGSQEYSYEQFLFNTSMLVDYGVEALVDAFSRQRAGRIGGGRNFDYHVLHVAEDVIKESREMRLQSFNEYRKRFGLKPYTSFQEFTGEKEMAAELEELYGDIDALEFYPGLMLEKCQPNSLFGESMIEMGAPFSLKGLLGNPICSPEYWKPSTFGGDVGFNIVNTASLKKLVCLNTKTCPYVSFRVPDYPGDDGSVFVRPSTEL

[7] = Compound was tested for spasmogenic activity of LTD4 on lung strips; format: functional
[8] = Compound was tested for spasmogenic activity of LTE4 on lung strips; format: functional
[9] = The effective dose for inhibition of LTD4-induced wheal formation after oral administration; format: functional
[10] = Compound was tested for spasmogenic activity of LTC4 on lung strips; format: functional
[11] = species on record: Rattus norvegicus; assay: The compound was tested for inhibition of [3H]LTD4 binding to lung membrane; format: functional
[12] = The effective dose for inhibition of anaphylactic death after oral administration; format: functional
[13] = target: T4, Polyunsaturated fatty acid 5-lipoxygenase (Rattus norvegicus) (UniProt P12527); assay: The compound was tested for inhibition against 5-lipoxygenase in rat polymorphonuclear leukocytes[PMNS] at 10 uM concentration; format: cell-based
T4 sequence (whole entry): T1 sequence (P12527 whole entry)

[14] = species on record: Cavia porcellus; assay: The compound was tested for inhibition of LTD4-induced bronchoconstriction in guinea pig; format: functional
[15] = target: T1, Polyunsaturated fatty acid 5-lipoxygenase; assay: The compound was tested for inhibitory activity against 5-lipoxygenase using rat polymorphonuclear leukocytes[PMNS]
[16] = target: T5, Polyunsaturated fatty acid 5-lipoxygenase (Homo sapiens, UniProt P09917)
T5 sequence (P09917 whole entry): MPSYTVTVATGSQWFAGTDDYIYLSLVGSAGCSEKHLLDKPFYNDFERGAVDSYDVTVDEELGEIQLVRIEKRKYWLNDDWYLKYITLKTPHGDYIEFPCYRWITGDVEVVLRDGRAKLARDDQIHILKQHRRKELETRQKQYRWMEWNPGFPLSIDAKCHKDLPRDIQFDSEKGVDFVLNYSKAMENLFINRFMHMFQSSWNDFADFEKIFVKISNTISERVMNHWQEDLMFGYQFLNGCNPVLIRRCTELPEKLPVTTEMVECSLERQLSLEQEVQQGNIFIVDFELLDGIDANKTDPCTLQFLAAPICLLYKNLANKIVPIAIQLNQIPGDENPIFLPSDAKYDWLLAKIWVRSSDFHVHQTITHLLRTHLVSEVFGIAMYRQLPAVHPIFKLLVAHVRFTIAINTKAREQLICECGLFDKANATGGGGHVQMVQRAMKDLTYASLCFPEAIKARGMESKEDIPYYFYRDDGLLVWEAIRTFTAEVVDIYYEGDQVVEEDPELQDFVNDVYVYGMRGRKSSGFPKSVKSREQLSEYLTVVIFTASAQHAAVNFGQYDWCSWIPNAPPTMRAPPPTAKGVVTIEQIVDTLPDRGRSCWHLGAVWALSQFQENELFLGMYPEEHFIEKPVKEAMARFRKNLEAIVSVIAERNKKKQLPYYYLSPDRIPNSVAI
Description: The compound was tested for inhibitory activity against 5-Lipoxygenase in human polymorphonuclear leukocytes[PMNS]

[17] = target: T1, Polyunsaturated fatty acid 5-lipoxygenase; assay: The compound was tested for inhibitory activity against 5-Lipoxygenase in rat RBL-1; format: cell-based
[18] = The compound was tested for inhibitory activity against Leukotriene B4 receptor in mouse mastocytoma
[19] = test system: RBL-2H3; assay: The compound was tested for inhibition of translocation in SAR in RBL-2H3 cells; format: functional, Rattus norvegicus
[20] = target: T4, Polyunsaturated fatty acid 5-lipoxygenase (Rattus norvegicus); assay: The compound was tested for inhibition of isolated 5-Lipoxygenase
[21] = test system: RBL-2H3; assay: The compound was tested for inhibition LTC4 synthesis; format: functional, Rattus norvegicus

Structure (SMILES): CC(C)(C)CC(=O)c1c(CC(C)(C)C(=O)O)n(Cc2ccc(Cl)cc2)c2ccc(OCc3ccc4ccccc4n3)cc12
- IC50 [1]: 2 nM

- IC50 [2]: 2500 nM
Structure (SMILES): CCCCC[C@H](O)c1cccc(OCc2cccc(CC(=O)O)c2)c1

- Ki [3]: 60 nM
Structure (SMILES): CCCc1c(OCCCCc2nnn[nH]2)ccc(C(C)=O)c1O [TOMELUKAST]
- Kb [4]: 209 nM

- IC50 [2]: 6200 nM
- IC50 [6]: 13400 nM
Structure (SMILES): c1cc(Cc2nnn[nH]2)cc(OCc2ccc3ccccc3n2)c1
- ED50 [5]: 0.4 mg/kg

Structure (SMILES): c1ccc(Cc2nn[nH]n2)c(COc2ccc(OCc3ccc4ccccc4n3)cc2)c1 [RG-12525]
- Kb [7]: 2.7 nM
- Kb [8]: 2.7 nM
- ED50 [9]: 5 mg/kg
- Kb [10]: 2.7 nM
- Ki [11]: 3 nM
- ED50 [12]: 2.2 mg/kg

- IC50 [1]: 25000 nM
Structure (SMILES): CC(C)(C)c1cc(-c2cn3ncc(=O)nc3s2)cc(C(C)(C)C)c1O

Structure (SMILES): CONC(=O)Cc1cccc(OCc2ccc3ccccc3n2)c1
- ED50 [5]: 7.9 mg/kg

- Inhibition [13]: 100%
Structure (SMILES): O=C(O)Cc1ccc(-c2ccc(OCc3ccc4ccccc4n3)cc2)c(F)c1

- IC50 [15]: 53000 nM
- IC50 [6]: 5820 nM
Structure (SMILES): Oc1ccccc1OCc1ccc2ccccc2n1
- Inhibition [14]: 28%

- IC50 [16]: 6000 nM
Structure (SMILES): O=C(CCCCCCCCc1ccccc1)NO

- IC50 [17]: 150 nM
Structure (SMILES): COc1ccc(-n2nc(CCC(=O)N(C)O)cc2-c2ccc(Cl)cc2)cc1 [TEPOXALIN]

- IC50 [18]: 320 nM
Structure (SMILES): CCOC(=O)Oc1ccc(/C=C/C=C/C(=O)NCCN2CCC(OC(c3ccccc3)c3ccccc3)CC2)cc1OC [LINETASTINE]

- Inhibition [20]: > 20 µM
Structure (SMILES): COc1ccc2cc([C@H](C)C(=O)O)ccc2c1 [NAPROXEN]
- Inhibition [19]: >10 µM
- Inhibition [21]: >10 µM
